Laboratory results from BindingDB's records for patent US12552799 (Nxera Pharma, 2026).

How the values were obtained:
[1] = target: T1, Adenosine receptor A1 (Homo sapiens, UniProt P30542); assay: Adenosine Receptor Binding Assay
T1 sequence (P30542 whole entry): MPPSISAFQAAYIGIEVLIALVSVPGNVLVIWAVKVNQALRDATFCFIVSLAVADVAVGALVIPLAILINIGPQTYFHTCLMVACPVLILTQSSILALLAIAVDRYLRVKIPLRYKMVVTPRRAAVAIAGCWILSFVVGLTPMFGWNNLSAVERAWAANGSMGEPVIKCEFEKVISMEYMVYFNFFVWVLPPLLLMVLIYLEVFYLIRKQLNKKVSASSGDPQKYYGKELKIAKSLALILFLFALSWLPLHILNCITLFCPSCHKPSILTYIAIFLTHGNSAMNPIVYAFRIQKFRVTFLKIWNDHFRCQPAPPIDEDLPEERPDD
Experimental: (§1) Inhibition binding assays were performed using 0.2 μg of membranes prepared from […] cells infected with BacMam human adenosine A2A receptor or 1.4 μg of membranes […] receptor. Membranes were incubated in 50 mM Tris-HCl (HEK293-hA2A; pH 7.4) or 50 mM Tris-HCl, 100 mM NaCl, 10 mM MgCl2 (CHO-hA1; pH 7.4) in the presence of varying concentrations of test compound and 1 nM [3H]ZM241385 (HEK293-hA2A) or [3H]DPCPX (CHO-hA1) at 25° C. for 1 h. The assay was then terminated by rapid filtration onto GF/B grade Unifilter plates using a TomTec cell harvester, followed by 5×0.5 ml washes with ddH2O. Nonspecific binding was defined in the presence of 1 μM CGS15943 (HEK293-hA2A) or 1 μM DPCPX (CHO-hA1). Bound radioactivity was determined by liquid scintillation counting and inhibition curves were analysed using a four-parameter logistic equation.

[2] = target: Adenosine receptor A2a (Homo sapiens, UniProt P29274); assay: Adenosine Receptor Binding Assay
Adenosine receptor A2a, sequence (P29274 whole entry): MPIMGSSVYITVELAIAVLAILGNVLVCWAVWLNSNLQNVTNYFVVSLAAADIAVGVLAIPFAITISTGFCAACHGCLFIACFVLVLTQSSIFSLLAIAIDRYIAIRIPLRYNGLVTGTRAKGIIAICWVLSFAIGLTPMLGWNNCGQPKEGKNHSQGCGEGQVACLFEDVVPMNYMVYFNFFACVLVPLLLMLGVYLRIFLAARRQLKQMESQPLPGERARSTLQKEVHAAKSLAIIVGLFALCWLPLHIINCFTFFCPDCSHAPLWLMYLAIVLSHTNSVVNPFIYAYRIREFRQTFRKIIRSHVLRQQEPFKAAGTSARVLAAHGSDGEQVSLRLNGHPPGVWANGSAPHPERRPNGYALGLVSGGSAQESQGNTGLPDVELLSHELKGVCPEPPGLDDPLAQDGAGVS
Experimental: as §1

SMILES	Ki [1]	Ki [2]
C[C@@H]1CN(c2c(-c3ccccc3)nc(N)n3c(=O)n(CCCF)nc23)C[C@H](C)O1 [US12552799, Example 1-2]	> 3160 nM	158 nM
CCCn1nc2c(N3C[C@@H](C)O[C@@H](C)C3)c(-c3ccccc3)nc(N)n2c1=O [US12552799, Example 1-4]	> 3160 nM	63.1 nM
C[C@@H]1CN(c2c(-c3ccccc3)nc(N)n3c(=O)n(C[C@@H]4CCCN4C)nc23)C[C@H](C)O1 [US12552799, Example 1-7]	2000 nM	158 nM
C[C@@H]1CN(c2c(-c3ccccc3)nc(N)n3c(=O)n(C[C@H]4CCCO4)nc23)C[C@H](C)O1 [US12552799, Example 1-8]	> 2000 nM	10 nM
Cc1cc(-c2c(-c3ccccc3)nc(N)n3c(=O)n(Cc4ccc(F)cn4)nc23)cc(C)c1O [US12552799, Example 3-1]	100 nM	0.631 nM
Cc1cc(-c2c(-c3ccc(F)cc3)nc(N)n3c(=O)n(Cc4ccc(Cl)cn4)nc23)cc2ocnc12 [US12552799, Example 4-2]	63.1 nM	0.158 nM
Cc1cc(-c2c(-c3ccccc3)nc(N)n3c(=O)n(Cc4ccc(F)cn4)nc23)cc2c1N=NC2 [US12552799, Example 4-4]	25.1 nM	0.251 nM
Cc1ocnc1Cn1nc2c(-c3cc(C)c4ncoc4c3)c(-c3ccccc3)nc(N)n2c1=O [US12552799, Example 4-6]	7.94 nM	0.079 nM
